This is an account of results in ChEMBL document CHEMBL1201862, “PubChem BioAssay data set” (2004).

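Cells were grown in 96-well plates and exposed to each compound for 48 hours at five concentrations; endpoints were interpolated linearly between bracketing concentrations, or set to the highest concentration if not reached. Abbreviation: GI50, concentration required for 50% inhibition of growth.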 Calls of active or inactive are those of the source. Rule as the data show it: active = GI50 up to about 1.1 µM and inactive = higher. A value given as a limit tells only on which side of the number the result lay.

What all share (assay): NCI tumour cell line growth inhibition, 48 h
The subject of assay [1] is M19-MEL.
In assay [2] the test system is LXFL 529.
Assay [3] has as its system XF498.
Assay [4] deals with DLD-1.
Assay [5] relates to SNB-78.
Assay [6] deals with HOP-18.
In assay [7] the test system is KM-20L2.
Assay [8] deals with DMS-114.
Assay [9] concerns RXF 631.

Take `CC1=C(C(=O)NCc2ccccc2)C(c2ccccc2O)C(C(=O)NCc2ccccc2)=C(C)N1`: the GI50 in [1] is 18.2 µM (inactive); in assay [2] it was 15 µM (inactive); in [3], 17 µM (inactive); in assay [4], 15.1 µM (inactive); in assay [5], 27.9 µM (inactive); in assay [6] it was 23.9 µM (inactive). The GI50 is 19.9 µM (inactive) in [7] and 18.2 µM (inactive) in assay [8].
For the compound `COC(=O)C(/C(=N\O)C(=O)Nc1ccc(Br)cc1)c1nc2ccccc2nc1O` (stereo not given), the GI50 in assay [1] is 26.1 µM (inactive); in assay [2] it was 28.6 µM (inactive); in assay [9], 46.9 µM (inactive); in assay [4], 35.2 µM (inactive); in assay [5] it was 96.6 µM (inactive); in assay [6], 52.4 µM (inactive). Further, the GI50 in [7] was 44 µM (inactive); in [8] it was 20.9 µM (inactive).
Consider `CC(C)N1CN(C(C(=O)N[C@@H]2C(=O)N3C2SC(C)(C)C3C(=O)O)c2ccccc2)CSC1=S` (stereo not given in full), for which the GI50 in assay [1], in [2], in assay [3], in assay [4], in assay [5] and in [6] was > 100 µM (inactive) each time. The GI50 in [7] was > 100 µM (inactive); in [8], 48.5 µM (inactive).
`Cc1ccc(S(=O)OCc2c(C)c(C)c(COS(=O)c3ccc(C)cc3)c(C)c2C)cc1` (stereo not given): the GI50 was > 100 µM (inactive) in assay [1]; > 100 µM (inactive) in [2]; > 100 µM (inactive) in assay [3]; > 100 µM (inactive) in assay [4]; 31.6 µM (inactive) in assay [5]; > 100 µM (inactive) in assay [6]. In addition, the GI50 in [7] and in assay [8] was > 100 µM (inactive) throughout.
As to `C[P+](C)(CC(F)(F)F)c1ccccc1`, the GI50 in assay [1] was > 100 µM (inactive); in assay [2], > 100 µM (inactive); in assay [3], < 0.01 µM (active); in assay [4], > 100 µM (inactive); in [5] it was > 100 µM (inactive); in assay [6], > 100 µM (inactive). Further, the GI50 in assay [7] and in [8] was > 100 µM (inactive) each time.
As for `CNC(=O)CN(CC(=O)O)C(=O)NC`, the GI50 in [1], in assay [2], in assay [9], in [3], in assay [4] and in assay [5] was > 100 µM (inactive) in each case.
Turning to `Cc1nc2ccccc2c(=O)n1NC(=S)Nc1ccc(Cl)cc1[N+](=O)[O-]`, the GI50 in assay [1], in assay [2], in [7] and in assay [8] was > 100 µM (inactive) throughout.
In the case of `C=C(C)C(=O)OC1CC2=CC(CC3(C)OC3C3OC(=O)C(=C)C13)OC2=O` (stereo not given), the GI50 is 6.62 µM (inactive) in [1]; 2.51 µM (inactive) in assay [2]; 15.8 µM (inactive) in [9]; 1.99 µM (inactive) in assay [4]; 12.1 µM (inactive) in assay [5]; 19.9 µM (inactive) in assay [6]. Further, the GI50 in assay [7] is 15 µM (inactive); in assay [8], 15.2 µM (inactive).
For `N#CCN1CCOCCOCCN(CC#N)CCOCCOCC1`, the GI50 in assay [1], in [2], in [9], in assay [4], in [5] and in assay [6] was > 100 µM (inactive) in each case. Moreover, the GI50 in assay [7] and in assay [8] was > 100 µM (inactive) in each case.
As to `Oc1cc(-c2cccc(F)c2)nc2cc3c(cc12)OCO3`, the GI50 is 0.272 µM (active) in assay [1]; 0.463 µM (active) in assay [2]; 0.495 µM (active) in [3]; 0.252 µM (active) in assay [4]; 0.343 µM (active) in assay [5]; 5.42 µM (inactive) in [6]. In addition, the GI50 in [8] is 0.239 µM (active).
With `O=C1CCCC1NC(=O)C(F)(F)F` (stereo not given), the GI50 in [1], in [2], in assay [3], in assay [4] and in [5] was > 100 µM (inactive) each time.
Turning to `O=[N+]([O-])C(/C=N/Nc1ccccc1)/C=N/Nc1ccccc1`, the GI50 in assay [1], in assay [2], in [3], in [4], in [5] and in [6] was > 100 µM (inactive) throughout. Moreover, the GI50 in assay [7] and in [8] was > 100 µM (inactive) each time.
For `CN1CCN(CN2C(=O)C3C4C=CC(C3C2=O)C2C3C(=O)N(CN5CCN(C)CC5)C(=O)C3C42)CC1` (stereo not given), the GI50 in [2] is 19.9 µM (inactive); in assay [4], 22.5 µM (inactive); in assay [7] it was 25 µM (inactive); in assay [8], 17.9 µM (inactive).
In the case of `COc1ccc(C2C(Cl)C(=O)N2n2cnc3ccccc3c2=O)cc1OC` (stereo not given), the GI50 in assay [1] was > 100 µM (inactive); in [2], > 100 µM (inactive); in assay [3], > 100 µM (inactive); in assay [5], > 100 µM (inactive); in assay [6] it was 25.3 µM (inactive); in [7] it was > 100 µM (inactive). Also, in [8], the GI50 was > 100 µM (inactive).
On to `CCOC(=O)Nc1cc2c(c(N)n1)N=C(c1ccccc1)[C@H](C)N2` [MIVOBULIN ISETHIONATE], for which the GI50 in assay [1] was < 0.0001 µM (active); in assay [2] it was < 0.0001 µM (active); in assay [3] it was < 0.0001 µM (active); in assay [4], < 0.0001 µM (active); in assay [5], 0.01 µM (active); in [6] it was 0.641 µM (active). Further, the GI50 in [7] and in assay [8] was < 0.0001 µM (active) throughout.
Take `COc1cc2c(cc1OC)c1c(OC)c(OC)cc3c1c1c2sc(=S)n1CC3`: the GI50 in assay [1] was 34.4 µM (inactive); in [2], 35.1 µM (inactive); in assay [4], 43 µM (inactive); in [5] it was > 100 µM (inactive); in assay [6] it was > 100 µM (inactive); in [7] it was > 100 µM (inactive). The GI50 in assay [8] is 29.3 µM (inactive).
`COc1ccc(/C=C2\CCC(C)(CN(C)C)C2=O)cc1OC` (stereo not given): the GI50 in assay [1], in assay [2], in assay [9], in [4], in assay [5] and in assay [6] was > 100 µM (inactive) each time. For the same compound, the GI50 in assay [7] and in [8] was > 100 µM (inactive) in each case.
For the compound `C#CC1/C(=C\C(=O)OC)CCCC1O` (stereo not given), the GI50 in assay [1], in [2], in [3], in [4], in assay [5] and in assay [6] was > 100 µM (inactive) in each case. Further, the GI50 in assay [7] and in [8] was > 100 µM (inactive) throughout.
As for `CC(=O)Oc1cc2c(cc1OC(C)=O)C1(C)CCC2(C)c2cc(OC(C)=O)c(OC(C)=O)cc21`, the GI50 in assay [1] was 9.04 µM (inactive); in assay [2], 4.99 µM (inactive); in [9], 23.2 µM (inactive); in [3], 11.4 µM (inactive); in assay [4] it was 17.7 µM (inactive); in [5] it was 16 µM (inactive). The GI50 in assay [7] is 26 µM (inactive).
